Source: patent US20200003756A1, “METHOD FOR OBSERVING SEBACEOUS GLAND” (MANDOM CORPORATION, priority 2017, published 2020)

Tested on: sebaceous-gland-structure A
Test: Classification of the state of lipid droplets in cells of the outermost layer of the sebaceous gland after suspension culture (Example 1)
Format: cell-based
Parameters: key to State of lipid droplet in cell contained in outermost layer of sebaceous gland FIG. 6(A) / State of lipid droplet in cell contained in outermost layer of sebaceous gland FIG. 6(B) / State of lipid droplet in cell contained in outermost layer of sebaceous gland FIG. 6(C) / State of lipid droplet in cell contained in outermost layer of sebaceous gland FIG. 6(D) / State of lipid droplet in cell contained in outermost layer of sebaceous gland FIG. 6(E) / State of lipid droplet in cell contained in outermost layer of sebaceous gland FIG. 6(F) / State of lipid droplet in cell contained in outermost layer of sebaceous gland FIG. 6(G): “◯ (open circle)” shows that a given state shown in FIG. 6 was observed; —: “-” shows that the given state shown in FIG. 6 was not observed
Conditions: for State of lipid droplet in cell contained in outermost layer of sebaceous gland FIG. 6(A): (A) No lipid droplet is found in the cell; for State of lipid droplet in cell contained in outermost layer of sebaceous gland FIG. 6(B): (B) A few lipid droplets are found in the cell; for State of lipid droplet in cell contained in outermost layer of sebaceous gland FIG. 6(C): (C) There is a space of lipid droplets in the cell; for State of lipid droplet in cell contained in outermost layer of sebaceous gland FIG. 6(D): (D) Lipid droplets start erosion of the nucleus; for State of lipid droplet in cell contained in outermost layer of sebaceous gland FIG. 6(E): (E) Lipid droplets start being connected to each other; for State of lipid droplet in cell contained in outermost layer of sebaceous gland FIG. 6(F): (F) The cell is fully occupied by lipid droplets; for State of lipid droplet in cell contained in outermost layer of sebaceous gland FIG. 6(G): (G) The cell is disappeared
Text: Under a stereoscopic microscope, a subcutaneous tissue was removed from a skin tissue by using scissors. Next, collagenous fibers were removed from the dermis in the skin tissue by using scissors and tweezers after removing the subcutaneous tissue, to obtain a sebaceous-gland-structure in which a sebaceous gland was exposed (hereinafter referred to as “sebaceous-gland-structure A”). […] In the sebaceous-gland-structure A, a sebaceous gland was exposed.
The sebaceous-gland-structure A obtained in Preparation Example 6 was immersed in a 4% by mass PFA-containing PBS solution at 4° C. for 30 minutes to fix the sebaceous-gland-structure A, thereby giving a fixed sample. The resulting fixed sample was washed by incubating the sample in a 2% by mass BSA-containing PBSTT solution at 4° C. for 1 hour. Washing was carried out three times.
The fixed sample after the washing was incubated in the primary antibody-containing solution obtained in Preparation Example 2 at 4° C. for 24 hours. The fixed sample after the incubation was washed by incubating the fixed sample in a […] by mass BSA-containing PBSTT solution at 4° C. for 1 hour. Washing was carried out three times.
The fixed sample after the washing was incubated in the staining reagent A obtained in Preparation Example 3 at 4° C. for 12 hours, to stain the sebaceous gland basal cell and the nucleus present in the outermost layer of the sebaceous gland. The stained fixed sample was washed by incubating the sample in a 2% by mass BSA-containing PBSTT solution at 4° C. for 1 hour. Washing was carried out three times.
The fixed sample after the washing was incubated in the staining reagent B obtained in Preparation Example 4 at room temperature (25° C.) for 30 minutes, to stain the sebum contained in the sebaceous-gland-structure A. The stained fixed sample was washed by incubating the sample in a 2% by mass BSA-containing PBSTT solution at 4° C. for 1 hour. Washing was carried out three times.
The fixed sample after the washing was subjected to incubation in a 20% by mass glycerol-containing PBS solution at 4° C. for 1 hour, incubation in a 50% by mass glycerol-containing PBS solution at 4° C. for 1 hour, and incubation in a 80% by mass glycerol-containing PBS solution at 4° C. for 1 hour, to substitute the moisture contained in the fixed sample with glycerol.
An appropriate amount (for example, 50 μL) of an 80 by mass aqueous glycerol solution was added to a region surrounded by the spaced contained in the spacer-attached coverslip obtained in Preparation Example 5. Next, the glycerol-substituted sebaceous-gland-structure A was placed on the region surrounded by the spacer contained in the spacer-attached coverslip so that the side of the sebaceous gland was directed downwards. Thereafter, the region surrounded by the spacer contained in the spacer-attached coverslip was covered with a round-shaped coverslip (diameter: 12 mm), to obtain an observation sample.
Linoleic acid was added to the mixed medium obtained in Preparation Example 1 (hereinafter also referred to as “test sample A”) so that the concentration of linoleic acid was 1×10^−4 M, to obtain a test sample B. In addition, linoleic acid was added to the mixed medium obtained in Preparation Example 1 so that the concentration of linoleic acid was 1×10^−3 M, to obtain a test sample C.
One milliliter of the test sample A was added to each well of a 24-well plate. Next, the sebaceous-gland-structure A obtained in Preparation Example 6 was cultured in a suspended state in the test sample A contained in each well of the 24-well plate in the presence of 5% by volume carbon dioxide at 37° C. for 24 hours, to contact the sebaceous-gland-structure A with the test sample A (Experiment number 1). In addition, the sebaceous-gland-structure A was contacted with the test sample A in the same manner as in Experiment number 1 except that in Experiment number 1, 48-hour culture was carried out in place of 24-hour culture (Experiment number 2). […]

[1] = linoleic acid 1 × 10^−3 M, culture 24 h (Experiment 5)
[2] = linoleic acid 1 × 10^−3 M, culture 48 h (Experiment 6)
[3] = linoleic acid 1 × 10^−4 M, culture 24 h (Experiment 3)
[4] = linoleic acid 1 × 10^−4 M, culture 48 h (Experiment 4)

## CCCCC/C=C\C/C=C\CCCCCCCC(=O)O [linoleic acid, Linoleic acid]
[1]
  State of lipid droplet in cell contained in outermost layer of sebaceous gland FIG. 6(A): ◯
  State of lipid droplet in cell contained in outermost layer of sebaceous gland FIG. 6(B): ◯
  State of lipid droplet in cell contained in outermost layer of sebaceous gland FIG. 6(C): ◯
  State of lipid droplet in cell contained in outermost layer of sebaceous gland FIG. 6(D): ◯
  State of lipid droplet in cell contained in outermost layer of sebaceous gland FIG. 6(E): ◯
  State of lipid droplet in cell contained in outermost layer of sebaceous gland FIG. 6(F): —
  State of lipid droplet in cell contained in outermost layer of sebaceous gland FIG. 6(G): ◯
[2]
  State of lipid droplet in cell contained in outermost layer of sebaceous gland FIG. 6(A): ◯
  State of lipid droplet in cell contained in outermost layer of sebaceous gland FIG. 6(B): ◯
  State of lipid droplet in cell contained in outermost layer of sebaceous gland FIG. 6(C): ◯
  State of lipid droplet in cell contained in outermost layer of sebaceous gland FIG. 6(D): ◯
  State of lipid droplet in cell contained in outermost layer of sebaceous gland FIG. 6(E): ◯
  State of lipid droplet in cell contained in outermost layer of sebaceous gland FIG. 6(F): ◯
  State of lipid droplet in cell contained in outermost layer of sebaceous gland FIG. 6(G): ◯
Linoleic acid 1×10^−4 M and 1×10^−3 M, culture 24 h and 48 h
  number of cells progressing sebum production (tendency from Table 2): the higher the linoleic acid concentration in the test sample is and the longer the culture time is, the larger the number of cells progressing sebum production is
[3]
  State of lipid droplet in cell contained in outermost layer of sebaceous gland FIG. 6(A): ◯
  State of lipid droplet in cell contained in outermost layer of sebaceous gland FIG. 6(B): ◯
  State of lipid droplet in cell contained in outermost layer of sebaceous gland FIG. 6(C): —
  State of lipid droplet in cell contained in outermost layer of sebaceous gland FIG. 6(D): —
  State of lipid droplet in cell contained in outermost layer of sebaceous gland FIG. 6(E): —
  State of lipid droplet in cell contained in outermost layer of sebaceous gland FIG. 6(F): —
  State of lipid droplet in cell contained in outermost layer of sebaceous gland FIG. 6(G): —
[4]
  State of lipid droplet in cell contained in outermost layer of sebaceous gland FIG. 6(A): ◯
  State of lipid droplet in cell contained in outermost layer of sebaceous gland FIG. 6(B): ◯
  State of lipid droplet in cell contained in outermost layer of sebaceous gland FIG. 6(C): ◯
  State of lipid droplet in cell contained in outermost layer of sebaceous gland FIG. 6(D): —
  State of lipid droplet in cell contained in outermost layer of sebaceous gland FIG. 6(E): —
  State of lipid droplet in cell contained in outermost layer of sebaceous gland FIG. 6(F): —
  State of lipid droplet in cell contained in outermost layer of sebaceous gland FIG. 6(G): —
